Several values for one entry are separate records, joined by “and”; a condition that tells them apart may be missing. Equal entries are not always repeated.
What was measured:
HIV [1] = assay: microbe, parasite or virus in culture; assay type: cell-based; details: CEM cells; for EC50: free HIV, read-out: Activity of Anti-HIV Compounds (EC50), CEMV
Method: (§1) The compounds of Examples were tested for anti-AIDS activity by subjecting them to standard National Cancer Institute ("NCI") in vitro screening procedures. In carrying out each test, two blanks were run. In the first blank, HIV and a culture of a standard human cell line were incubated together to measure the infectivity of the virus. The viability of the cells was measured after holding for six or seven days. In an "effective" test, most cells were infected before the holding period was complete.
In the second blank, the cell line culture and the compound being tested (but not virus) were incubated together to measure the toxicity of the drug to the cellline. The viability of the cells was measured as a function of concentration of the compound, after holding for seven days. Typically, the cells survive at low compound concentrations, but at some higher concentration, toxicity of the compound is manifested and the cells die. The concentration of the test compound that results in 50% inhibition of cell growth is defined as the IC50.
(§2) Finally, the protective effects of the test compounds were measured. Each cell culture and test compound were incubated with the virus and the viability of the cells was measured as a function of compound concentration after holding for six or seven days. If the compound is active in protecting the cells against the virus, there is typically low cell viability until an effective concentration of the test compound is reached. At this point, cell viability increases steadily toward 100% unless the toxic effect of the compound (as measured in the second blank) takes effect. The concentration of the test compound that results in 50% "control," i.e., a 50% reduction of the viral cytopathic effect, is defined as the EC 50. The therapeutic index TI50 is calculated as IC50/EC50.
(§3) Values of test compound concentrations required for between 20 and 50% reduction of the viral cytopathic effect can also be determined. Such compounds are classified as moderately active.
(§4) The compounds were tested to determine their reduction of HIV cytopathic effect on the human cell lines CEM and MT2. Tests were done by innoculating these cell lines either with free HIV (V) or with a virus Previously cultured with host cells (C). Thus, in Table III the designation CEMV means CEM line cells innoculated with free virus and MT2C means MT2 cells innoculated with cultured viral infected MT2 cells. In some cases the compound was also tested on a cell line together with a sub-effective amount of the known HIV viricide AZT. This is done to test possible synergistic effects. Such a test on the CEM line is denoted CEMZ.
1) T4 lymphocytes (CEM cell line) are exposed to HIV at a virus to cell ratio of approximately 0.05 and plated along with non-infected control cells in 96-well microtiter plates.
2) Each candidate agent is dissolved in dimethyl sulfoxide (unless otherwise indicated), then diluted 1:200 in cell culture medium. Further dilutions (five-fold) are prepared before adding to an equal volume of medium containing either infected or noninfected cells.
3) Cultures are incubated at 37° C. in a 5% carbon dioxide atmosphere for seven days (if six days the CEMV test is identified as CEM-6).
(§5) 4) The tetrazolium salt, XTT, is added to all wells, and cultures are incubated to allow formazan color development by viable cells.
(§6) 5) Individual wells are analyzed spectrophotometrically to quantity formazan production, and in addition are viewed microscopically for detection of viable cells and confirmation of protective activity.
(§7) 6) Drug-treated virus-infected cells are compared with drug-treated non-infected cells and with other appropriate controls (untreated infected and untreated non-infected cells, drug-containing wells without cells, etc.) on the same plate.
7) A determination of activity is made. […]

HIV [2] = assay: Reduction of HIV cytopathic effect, CEM-IW protocol; assay type: cell-based; details: asterisk: CEMIW protocol; for EC50: CEM cells, drug added before virus, read-out: Activity of Anti-HIV Compounds (EC50), CEM-IW; for Activity class of Anti-HIV Compounds, CEM-IW: inhibition of viral cytopathic effect
Method: as §1, §2, §3, §4
The aforementioned identifiers are used when a batch was prepared and samples inserted into the wells. In procedures calling for the addition of the drug (or no drug) and the CEM uninfected cells to each well, followed by the subsequent addition of the HIV virus, the protocol is designated as CEM-IW.
as §5, §6, §7
Asterisks indicate the CEMIW protocol.

[3] = Human immunodeficiency virus 1, CCRF-CEM

For `CCOC(=O)c1cc(NC(=O)C2=C(C)OCCS2)ccc1Cl` [Compound 4, Ethyl 2-chloro-5-[[(5,6-dihydro-2-methyl-1,4-oxathiin-3-yl)carbonyl]amino]benzoate], the EC50 (HIV [1]) was 300 nM and 200 nM and the EC50 (HIV [1]; [3]) was 400 nM.
`CCCOC(=O)c1cc(NC(=O)C2=C(C)OCCS2)ccc1Cl` [Compound 5, Propyl 2-chloro-5-[[(5,6-dihydro-2-methyl-1,4-oxathiin-3-yl)carbonyl]amino]benzoate] showed an EC50 (HIV [1]) of 60 nM and an EC50 (HIV [1]; [3]) of 70 nM.
For `CCCCOC(=O)c1cc(NC(=O)C2=C(C)OCCS2)ccc1Cl` [Compound 6, Butyl 2-chloro-5-[[(5,6-dihydro-2-methyl-1,4-oxathiin-3-yl)carbonyl]amino]benzoate], the EC50 (HIV [1]; [3]) was 100 nM.
Molecule `CCC1=C(C(=O)Nc2ccc(Cl)c(C(=O)OC(C)C)c2)SCCO1` [Compound 7, 1-Methylethyl 2-chloro-5-[[(2-ethyl-5,6-dihydro-1,4-oxathiin-3-yl)carbonyl]amino]benzoate] has an EC50 (HIV [1]) of 700 nM and an EC50 (HIV [1]; [3]) of 840 nM.
For `CC1=C(C(=O)Nc2cccc(C#N)c2)SCCO1` [Compound 9, N-(3-Cyanophenyl)-5,6-dihydro-2-methyl-1,4-oxathiin-3-carboxamide], the “Activity class of Anti-HIV Compounds, CEMV” value (HIV [1]; inhibition of viral cytopathic effect, free virus) was “MA (moderate activity (MA), that is, inhibition between approximately 20 and 50%)”.
Molecule `CC1=C(C(=O)Nc2cccc(C(=O)OC(C)C)c2)SCCO1` [Compound 10, 1-Methylethyl 3-[[(5,6-dihydro-2-methyl-1,4-oxathiin-3-yl)carbonyl]amino]benzoate] has an EC50 (HIV [1]) of 2900 nM and an EC50 (HIV [1]; [3]) of 3000 nM.
Molecule `CC1=C(C(=O)Nc2cc(C(=O)OC(C)C)ccc2F)SCCO1` [Compound 13, 1-Methylethyl 3-[[(5,6-dihydro-2-methyl-1,4-oxathiin-3-yl)carbonyl]amino]-4-fluorobenzoate] has an EC50 (HIV [1]) of 13200 nM and an EC50 (HIV [1]; [3]) of 15200 nM.
With `CCOC(=O)c1ccc(C)c(NC(=O)C2=C(C)OCCS2)c1` [Compound 14, Ethyl 3-[[(5,6-dihydro-2-methyl-1,4-oxathiin-3-yl)carbonyl]amino]-4-methylbenzoate] the EC50 (HIV [1]) was 5200 nM and the EC50 (HIV [1]; [3]) was 7600 nM.
For `CCOC(=S)Nc1ccc(Cl)c(C(=O)OC(C)C)c1` [Compound 33], the EC50 (HIV [2]; [3]) was 660 nM and the EC50 (HIV [2]) was 680 nM and 730 nM.
`CCCOC(=S)Nc1ccc(Cl)c(C(=O)OC(C)C)c1` [Compound 35] was tested, and the EC50 (HIV [2]; [3]) was 240 nM and the EC50 (HIV [2]) was 180 nM and 200 nM.
For `CCCCCOC(=S)Nc1ccc(Cl)c(C(=O)OC(C)C)c1` [Compound 36], the EC50 (HIV [2]; [3]) was 1040 nM and the EC50 (HIV [2]) was 1380 nM and 1320 nM and 890 nM.
`C=CCOC(=S)Nc1ccc(Cl)c(C(=O)OC(C)C)c1` [Compound 37] gave an EC50 (HIV [2]; [3]) of 320 nM and an EC50 (HIV [2]) of 200 nM.
`CC(C)OC(=O)c1cc(NC(=S)OC2C=CCCC2)ccc1Cl` (centres unmarked) [Compound 39] was tested, and the EC50 (HIV [2]; [3]) was 1090 nM and the EC50 (HIV [2]) was 1470 nM and 1750 nM and 1460 nM.
For `CC(C)OC(=O)c1cc(NC(=S)OCC2CCCO2)ccc1Cl` (centres unmarked) [Compound 43], the “Activity class of Anti-HIV Compounds, CEM-IW” value (shortened to “Activity class … CEM-IW”) (HIV [2]) was “MA (moderate activity (MA), that is, inhibition between approximately 20 and 50%)”.
`CCCSC(=Nc1ccc(Cl)c(C(=O)OC(C)C)c1)OC(C)C` [Compound 52] was tested, and the EC50 (HIV [2]; [3]) was 2440 nM and the EC50 (HIV [2]) was 2470 nM and 1940 nM.
`Cc1oc(C)c(C(=S)Nc2ccc(Cl)c(C(=O)OC(C)C)c2)c1C` [Compound 58, 1-Methylethyl 2-chloro-5-[(2,4,5-trimethyl 3-furanyl)thioxomethyl]amino1benzoate] was tested, and the EC50 (HIV [2]; [3]) was 870 nM and the EC50 (HIV [2]) was 750 nM and 1060 nM and 900 nM.
In the case of `Cc1occc1C(=S)Nc1ccc(Cl)c(C(=O)OC(C)C)c1` [Compound 59, 1-methylethyl 2-chloro-5-[(2-methyl-3-furanyl)thioxomethyl]amino benzoate], the EC50 (HIV [2]; [3]) is reported as 43 nM and the EC50 (HIV [2]) is reported as 37 nM.
For `CC(C)OC(=O)c1cc(NC(=S)c2ccccc2)ccc1Cl` [Compound 61, Benzoic acid, 2-chloro-5-(phenylthioxomethyl) amino-, 1-methylethyl ester], the EC50 (HIV [2]; [3]) was 390 nM and the EC50 (HIV [2]) was 620 nM and 420 nM and 450 nM.
For `COc1ccccc1C(=S)Nc1ccc(Cl)c(C(=O)OC(C)C)c1` [Compound 65], the EC50 (HIV [2]; [3]) was 476 nM and the EC50 (HIV [2]) was 404 nM and 588 nM and 509 nM.
For `CC(C)OC(=O)c1cc(NC(=O)c2ccccc2I)ccc1Cl` [Compound 82, 1-Methylethyl 2-chloro-5-[(2-iodobenzoyl)amino]benzoate], the EC50 (HIV [2]; [3]) was 2670 nM and the EC50 (HIV [2]) was 2560 nM and 2150 nM and 2880 nM.
With `COc1ccccc1C(=O)Nc1ccc(Cl)c(C(=O)OCC2CCCO2)c1` (centres unmarked) [Compound 83, Tetrahydro-2-furanylmethyl 2-chloro-5-[(2-methoxybenzoyl)-amino]benzoate] the “Activity class … CEM-IW” value (HIV [2]) was “MA (moderate activity (MA), that is, inhibition between approximately 20 and 50%)”.
For `COc1ccccc1NC(=O)Nc1ccc(Cl)c(C(=O)OC(C)C)c1` [Compound 99], the “Activity class … CEM-IW” value (HIV [2]) was “MA (moderate activity (MA), that is, inhibition between approximately 20 and 50%)”.
`CC(C)OC(=O)c1cc(NC(=O)OC2CCCCC2)ccc1Cl` [Compound 102] was tested, and the “Activity class … CEM-IW” value (HIV [2]) was “MA (moderate activity (MA), that is, inhibition between approximately 20 and 50%)”.
With `CC1=C(C(=O)Nc2ccc(O)c(C(=O)OC(C)C)c2)SCCO1` [Compound 112, 1-Methylethyl 5-[[(5,6-dihydro-2-methyl-1,4-oxathiin-3-yl)-carbonyl]amino]-2-hydroxybenzoate] the “Activity class … CEM-IW” value (HIV [2]) was “MA (moderate activity (MA), that is, inhibition between approximately 20 and 50%)”.
`CC(=O)Nc1ccccc1C(=O)Nc1ccc(Cl)c(C(=O)OC(C)C)c1` [Compound 114, 1-Methylethyl 5-[(2-acetamidobenzoyl)amino]-2-chlorobenzoate] was tested, and the “Activity class … CEM-IW” value (HIV [2]) was “MA (moderate activity (MA), that is, inhibition between approximately 20 and 50%)”.
In the case of `CC(C)OC(=O)c1cc(NC(=S)OCc2ccccc2)ccc1Cl` [Compound 117], the “Activity class … CEM-IW” value (HIV [2]) is reported as “MA (moderate activity (MA), that is, inhibition between approximately 20 and 50%)”.
`COC(=O)c1ccccc1S(=O)(=O)NC(=O)Nc1ccc(Cl)c(C(=O)OC(C)C)c1` [Compound 130] was tested, and the “Activity class … CEM-IW” value (HIV [2]) was “MA (moderate activity (MA), that is, inhibition between approximately 20 and 50%)”.
`CC(C)OC(=O)c1cc(NC(=NS(=O)(=O)c2ccccc2)c2ccccc2F)ccc1Cl` [Compound 131] was tested, and the “Activity class … CEM-IW” value (HIV [2]) was “MA (moderate activity (MA), that is, inhibition between approximately 20 and 50%)”.
For `CCOC(=O)c1cc(NC(=S)OC(C)C)ccc1SC` [Compound 145], the EC50 (HIV [2]; [3]) was 260 nM and the EC50 (HIV [2]) was 373 nM and 243 nM and 422 nM.
Work on `CC1=C(C(=O)Nc2ccccc2C(=O)Nc2ccc(Cl)c(C(=O)OC(C)C)c2)SCCO1` [Compound 147] yielded an EC50 (HIV [2]; [3]) of 590 nM and an EC50 (HIV [2]) of 608 nM.
For `CCOC(=O)c1cc(NC(=S)OC(C)C)ccc1Cl` [Compound 148], the “Activity class … CEM-IW” value (HIV [2]) was “MA (moderate activity (MA), that is, inhibition between approximately 20 and 50%)”.
`CCOC(=O)c1cc(NC(=S)OC(C)C)ccc1C` [Compound 150] was tested, and the EC50 (HIV [2]; [3]) was 210 nM and the EC50 (HIV [2]) was 230 nM and 296 nM and 329 nM.
With `CCC(CC)OC(=O)c1cc(NC(=S)OC(C)C)ccc1Cl` [Compound 151] the EC50 (HIV [2]; [3]) was 95.4 nM and the EC50 (HIV [2]) was 84.2 nM and 77.7 nM and 53.7 nM.
With `CCC(C)OC(=O)c1cc(NC(=S)OC(C)C)ccc1Cl` (centres unmarked) [Compound 152] the EC50 (HIV [2]; [3]) was 71.7 nM and the EC50 (HIV [2]) was 41.7 nM and 36.8 nM and 57.1 nM.
In the case of `CCCCOC(=O)c1cc(NC(=S)OC(C)C)ccc1Cl` [Compound 153], the EC50 (HIV [2]; [3]) is reported as 71.9 nM and the EC50 (HIV [2]) is reported as 42.6 nM and 53 nM.
With `CCCOC(=O)c1cc(NC(=S)OC(C)C)ccc1Cl` [Compound 154] the EC50 (HIV [2]; [3]) was 44.3 nM.
With `CC(=O)Oc1ccc(NC(=O)C2=C(C)OCCS2)cc1C(=O)OC(C)C` [Compound 157] the “Activity class … CEM-IW” value (HIV [2]) was “MA (moderate activity (MA), that is, inhibition between approximately 20 and 50%)”.
For `CCC(=O)Oc1ccc(NC(=O)C2=C(C)OCCS2)cc1C(=O)OC(C)C` [Compound 158], the EC50 (HIV [2]; [3]) was 6100 nM and the EC50 (HIV [2]) was 6770 nM and 4490 nM and 3620 nM.

Source: patent US5268389A, “Thiocarboxylate ester compounds compositions containing the same” (priority 1990, dated 1993)
